The values that follow come from patent US7879846B2, “Serine hydrolase inhibitors” (Kyorin Pharmaceutical Co.., Ltd., priority 2006, dated 2011).

In the assay the target is T1, Human sputum neutrophil elastase (Homo sapiens, UniProt P08246).
T1 construct: purchased Elastin Products Co; host or cells: human sputum (natural source)
T1 sequence (P08246 30-247 limits assumed): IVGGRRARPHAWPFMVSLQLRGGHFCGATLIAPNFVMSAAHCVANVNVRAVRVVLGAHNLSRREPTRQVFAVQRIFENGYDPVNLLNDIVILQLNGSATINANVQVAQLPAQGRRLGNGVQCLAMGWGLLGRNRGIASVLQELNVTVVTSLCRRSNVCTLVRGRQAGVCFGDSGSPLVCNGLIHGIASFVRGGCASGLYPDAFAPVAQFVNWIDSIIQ
The experiment in a line: Inhibitor IC50 against human neutrophil elastase (fluorogenic MeOSuc-AAPV-AMC substrate). The assay is classed as biochemical. The following applies: 20 min preincubation, read-out: HNE IC50. On the procedure: Determination of Inhibitor IC50 Values Against Human Neutrophil Elastase
Human sputum neutrophil elastase (Elastin Products Co.) was diluted into Assay Buffer A (200 mM Tris pH 7.4, 1 mg/ml BSA) to a working concentration of 0.55 U/ml. […] DMSO alone was used as the negative control. MeOSuc-AAPV-AMC (Bachem) substrate was dissolved in DMSO to 20 mM and further diluted to 1 mM in Assay Buffer A immediately before use. Substrate was added to the elastase assay at a final concentration of 1×10^−4 M. The reaction was allowed to proceed for 20 minutes at room temperature and then quenched with acetic acid at a final concentration of 3% (v/v). […] Fluorescence intensity versus inhibitor concentration was plotted and fit to the Hill equation to quantify IC50 values.
Turning to `CCc1cc(OC)cc2nc(-c3cccnc3N3CC[C@H](N4CCOCC4)C3)oc(=O)c12` [Compound 262], the IC50 was < 15 nM.
For the molecule `C#CCOC(=O)NCCN1CCN(c2ncccc2-c2nc3cc(OC)cc(CC)c3c(=O)o2)CC1` [Compound 227], the IC50 was in the range of 16 to 60 nM.
On to `CCCc1cc(OC)cc2nc(-c3cccnc3N3CCN(CCN(C)C)CC3)oc(=O)c12` [Compound 158], for which the 50% inhibitory concentration (IC50) was 16 to 60 nM.
Regarding `CSc1ncccc1-c1nc2cccc(Cl)c2c(=O)o1` [Compound 27], the IC50 is 61 to 150 nM.
For the molecule `CCc1cc(OC)cc2nc(-c3cccnc3N(C)CCCN(C)C)oc(=O)c12` [Compound 241], the IC50 is < 15 nM.
On to `CCCc1cc(OC)cc2nc(-c3cccnc3N(C)CCN(C)C)oc(=O)c12` [Compound 151], for which the IC50 is 16 to 60 nM.
In the case of `O=c1oc(-c2ncccc2-n2ccnc2)nc2cccc(Cl)c12` [Compound 70] it was > 150 nM.
On to `CCc1cc(OC)cc2nc(-c3cccnc3N3CC[N+](C)(CCOC)CC3)oc(=O)c12` [Compound 230], for which the 50% inhibitory concentration (IC50) is < 15 nM.
On to `CCc1cccc2nc(-c3cccnc3N3CCCN(C)CC3)oc(=O)c12` [Compound 92], for which the IC50 was < 15 nM.
With `Cc1ccc(Sc2ncccc2-c2nc3cccc(Cl)c3c(=O)o2)cc1` [Compound 28], the IC50 fell in the range of 61 to 150 nM.
Take `COc1cc(C(C)C)c2c(=O)oc(-c3cnn(C)c3[N+](=O)[O-])nc2c1` [Compound 120]: the IC50 was 16 to 60 nM.
In the case of `COc1cc(C2CC2)c2c(=O)oc(-c3cccnc3N3CCCN(C)CC3)nc2c1` [Compound 140] it was 61 to 150 nM; in that of `COc1cc(C2CCC2)c2c(=O)oc(-c3cccnc3N3CC[C@@H](N(C)C)C3)nc2c1` [Compound 175], > 150 nM.
Turning to `CCc1cc(OC)cc2nc(-c3cccnc3N3CCN(c4nccs4)CC3)oc(=O)c12` [Compound 250], the IC50 was < 15 nM.
In the case of `CCc1cc(OC)cc2nc(-c3cccnc3N3CCC(N4CCCCC4)CC3)oc(=O)c12` [Compound 216] it was < 15 nM.
In the case of `CCc1cc(OC)cc2nc(-c3cccnc3N3CC[C@H](N(CCO)CCO)C3)oc(=O)c12` [Compound 263] it was < 15 nM; in that of `COc1cc(C(C)C)c2c(=O)oc(-c3cnn(C)c3N3CCN(C)CC3)nc2c1` [Compound 123], > 150 nM; in that of `COc1cc(C(C)C)c2c(=O)oc(-c3cccnc3N3CC[C@H](N(C)C)C3)nc2c1` [Compound 111], 61 to 150 nM.
Take `CCCc1cc(OC)cc2nc(-c3cccnc3N3CCN(CCN4CCOCC4)CC3)oc(=O)c12` [Compound 147]: the IC50 fell in the range of 61 to 150 nM.
With `CCc1cc(OC)cc2nc(-c3cccnc3N3CCC(CCN(C)C)CC3)oc(=O)c12` [Compound 248] the figure was < 15 nM; with `Cc1cccc2nc(-c3cccnc3OCCOCCOCCOCCOc3ncccc3-c3nc4cccc(C)c4c(=O)o3)oc(=O)c12` [Compound 59], 61 to 150 nM; with `CCc1cccc2nc(-c3cccnc3N3CCN(CCN(C)C)CC3)oc(=O)c12` [Compound 162], < 15 nM.
As for `CCCc1cc(OC)cc2nc(-c3cccnc3N3CCCN(C)CC3)oc(=O)c12` [Compound 156], the IC50 was in the range of 61 to 150 nM.
For `COc1cc(C2CC2)c2c(=O)oc(-c3cccnc3N3CC[C@H](N(C)C)C3)nc2c1` [Compound 165], the IC50 lay in the range of 61 to 150 nM.
In the case of `CCc1cccc2nc(-c3cccnc3N3CCN4CCCC4C3)oc(=O)c12` (stereo not drawn) [Compound 104] it was < 15 nM.
Take `CCc1cc(OC)cc2nc(-c3cccnc3N(CC)CCCN3CCOCC3)oc(=O)c12` [Compound 238]: the IC50 is < 15 nM.
`COc1cc(C(C)C)c2c(=O)oc(-c3cccnc3N(C)CCN(C)C)nc2c1` [Compound 118]: the IC50 is 61 to 150 nM.
With `CCc1cc(OC)cc2nc(-c3cccnc3N3CC[C@@H](N(CCO)CCO)C3)oc(=O)c12` [Compound 268] the figure was < 15 nM; with `Cc1cccc2nc(-c3ncccc3-n3ccnc3)oc(=O)c12` [Compound 68], > 150 nM.
In the case of `CCc1cc(OC)cc2nc(-c3cccnc3N3CCC(CCCC(=O)O)CC3)oc(=O)c12` [Compound 225], the IC50 was in the range of 16 to 60 nM.
